Assay results from ChEMBL document CHEMBL4699518, “Cytotoxic Xanthone Derivatives from the Mangrove-Derived Endophytic Fungus Peniophora incarnata Z4” (J Nat Prod, 2020).

Legend:
Type in all cases: functional, cell-based
[1] = system: MCF7; experiment: Cytotoxicity against human MCF7 cells assessed as reduction in cell viability after 48 hrs by MTT assay; conditions: MCF7, 48 h
[2] = system: A-375; experiment: Cytotoxicity against human A-375 cells assessed as reduction in cell viability after 48 hrs by MTT assay; conditions: A-375, 48 h
[3] = system: HL-60; experiment: Cytotoxicity against human HL-60 cells assessed as reduction in cell viability after 48 hrs by MTT assay; conditions: HL-60, 48 h

Row | Compound | IC50 [1] [µM] | IC50 [2] [µM] | IC50 [3] [µM]
1 | COC(=O)CCc1oc2cccc(O)c2c(=O)c1[C@H](O)C(=O)OC | > 10 | > 10 | > 10
2 | COC(=O)c1c(N[C@@H]2Cc3oc4cccc(O)c4c(=O)c3[C@](O)(C(=O)OC)[C@@H]2O)ccc2oc3cccc(O)c3c(=O)c12 | > 10 | > 10 | > 10
3 | COC(=O)c1c(O)ccc2oc3cc(O)cc(O)c3c(=O)c12 | > 10 | > 10 | > 10
4 | COC(=O)[C@@]1(O)c2c(oc3cccc(O)c3c2=O)C[C@@H](OC)[C@H]1O | > 10 | > 10 | > 10
5 | COC(=O)[C@@]1(O)c2c(oc3cccc(O)c3c2=O)[C@@H](O)C[C@@H]1O | > 10 | > 10 | > 10
6 | COC(=O)[C@@]1(O)c2c(oc3cccc(O)c3c2=O)C[C@@H](S)[C@@H]1O | 6.5 | 8.6 | 4.9
7 | O=C1N[C@@H]2Cc3oc4cccc(O)c4c(=O)c3[C@@]1(O)[C@@H]2O | > 10 | > 10 | > 10
8 | COc1cccc2c1C(=O)c1c(O)c3c(c(O)c1C2=O)C[C@@](O)(C(=O)CO)C[C@@H]3O[C@H]1C[C@H](N)[C@H](O)[C@H](C)O1 [DOXORUBICIN] | – | 2.1 | 1.2
